In PubChem BioAssay (NCI):
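Grown in 96-well plates, cells were treated for 48 hours with each compound at five concentrations. Insufficient inhibition: endpoint recorded as highest concentration tested. Definition used: TGI = concentration required for complete inhibition of growth.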

Key:
Assay in all cases: inhibition of tumour cell growth, NCI panel, 48 h
U251 CNS = system: U251 CNS
HCT-116 colon = system: HCT-116 colon
UACC-62 melanoma = system: UACC-62 melanoma
MOLT-4 leukemia = system: MOLT-4 leukemia
SNB-75 CNS = system: SNB-75 CNS
HOP-62 NSCLC = system: HOP-62 NSCLC
HT29 colon = system: HT29 colon
CCRF-CEM leukemia = system: CCRF-CEM leukemia
HOP-92 NSCLC = system: HOP-92 NSCLC
NCI/ADR-RES ovarian = system: NCI/ADR-RES ovarian
MCF7 breast = system: MCF7 breast
T-47D breast = system: T-47D breast

Row | Compound | TGI (U251 CNS) | TGI (HCT-116 colon) | TGI (UACC-62 melanoma) | TGI (MOLT-4 leukemia) | TGI (SNB-75 CNS) | TGI (HOP-62 NSCLC) | TGI (HT29 colon) | TGI (CCRF-CEM leukemia) | TGI (HOP-92 NSCLC) | TGI (NCI/ADR-RES ovarian) | TGI (MCF7 breast) | TGI (T-47D breast)
1 | CCOc1ccccc1N=Nc1c(-c2ccccc2)nn(C(=O)CC(=O)Nc2cccc(C)c2)c1-c1ccccc1 | > 100 µM | > 100 µM | > 100 µM | > 100 µM | > 100 µM | > 100 µM | > 100 µM | > 100 µM | > 100 µM | – | – | –
2 | CC(=O)NC(NCCN)(c1ccccc1)c1ccccc1 | > 100 µM | > 100 µM | – | > 100 µM | > 100 µM | > 100 µM | > 100 µM | > 100 µM | > 100 µM | > 100 µM | > 100 µM | –
3 | C/C=C1\CN2CCc3c([nH]c4ccccc34)C2CC1CCO (stereo not drawn) | > 100 µM | > 100 µM | – | > 100 µM | > 100 µM | > 100 µM | > 100 µM | > 100 µM | > 100 µM | – | – | –
4 | OC(CN(CCCl)CCCl)C(O)C(O)C(O)CN(CCCl)CCCl (stereo not drawn) | > 100 µM | > 100 µM | > 100 µM | – | – | > 100 µM | > 100 µM | > 100 µM | > 100 µM | > 100 µM | > 100 µM | > 100 µM
5 | CCN(CC)CCN(C)c1ccc(CO)c2c1C(=O)c1ccccc1S2=O (stereo not drawn) | 3.27 µM | 3.97 µM | 17.6 µM | – | 31.5 µM | 8.71 µM | 2.95 µM | 9.96 µM | 30.5 µM | 3.48 µM | > 34.5 µM | 28.2 µM
6 | COc1cccc(C2SC(N)=Nc3c2c(C)nn3C(=O)Cc2ccccc2)c1 (stereo not drawn) | – | > 100 µM | > 100 µM | > 100 µM | > 100 µM | > 100 µM | > 100 µM | > 100 µM | – | – | > 100 µM | > 100 µM
7 | COc1cc(C2(c3ncc[nH]3)SSSCC2O)ccc1O (stereo not drawn) | > 100 µM | > 100 µM | > 51.2 µM | > 54.7 µM | > 100 µM | > 100 µM | > 100 µM | > 53.6 µM | 58.3 µM | > 62.8 µM | > 100 µM | –
8 | Clc1ccc(CCN[C@H]2CCCC[C@H]2N2CCCC2)cc1Cl | > 100 µM | > 100 µM | 34.9 µM | > 100 µM | – | 48.2 µM | 49.9 µM | > 100 µM | – | > 100 µM | 35.7 µM | –
9 | CC(C)CC(N)C(=O)Nc1ccc2ccccc2c1 (stereo not drawn) | > 100 µM | > 100 µM | > 100 µM | > 100 µM | > 100 µM | > 100 µM | > 100 µM | > 100 µM | – | > 100 µM | > 100 µM | > 100 µM
10 | Nc1ncnc2c1ncn2C1CCC(CP(=O)(O)O)C1 (stereo not drawn) | > 100 µM | > 100 µM | > 100 µM | – | – | > 100 µM | > 100 µM | – | – | > 100 µM | > 100 µM | > 100 µM
11 | COc1nc(N)c(NC(C)=O)c(=O)n1C | > 100 µM | > 100 µM | – | > 100 µM | > 100 µM | – | > 100 µM | > 100 µM | > 100 µM | – | – | –
